Laboratory results published in patent US8518882B2, “Methods and compositions for ameliorating or inhibiting decline in memory or intelligence or improving same” (priority 1998, dated 2013).

Assays:
EC and IC rats [1] = assay: Visible platform water maze task in EC and IC rats; format: in vivo, Sprague Dawley rats; settings: UMP-supplemented diet
Source text: On each trial the animal was placed into the tank facing the wall at one of four designated start points (N, S, E, and W) and allowed to escape onto the visibly cued platform. A different starting point was used on each trial such that each starting point was used each day. In addition, the visible escape platform was placed in a different quadrant on each trial such that each of the four quadrants contained the escape platform once each day. […] After mounting the platform, rats remained on the platform for 20 sec. Following each trial, animals were removed from the maze and placed in a holding cage for a 30-sec ITI.

gerbils [2] = assay: Working memory and reference memory assay in gerbils; format: in vivo; settings: 0.1% UMP diet for four weeks
Source text: Groups of ten gerbils fed control or 0.1% UMP diet for four weeks and trained to successfully find all of the food pellets as described above were then given a modified test in which only two arms of the maze (but always the same two) contained food pellet rewards. In this test, a working memory error is one in which a gerbil revisits an arm from which it has already taken the pellet that day.

[3] = test system: dopamine (DA) release in striatal dialysate; assay: In vivo microdialysis of striatal dopamine and metabolites in aged rats on UMP diet; set-up: species or system Fischer 344 rats; settings: control vs. UMP-1 week vs. UMP-6 weeks, 2.5% UMP diet
EC and IC rats [4] = assay: Hidden platform water maze task and probe test in EC and IC rats; format: in vivo, Sprague Dawley rats; settings: 0.1% UMP diet
Procedure: Behavioral training was carried out between 10:00 AM-2:00 PM, in a blinded manner. […] A different starting point was used on each trial such that each starting point was used once each day. […] After mounting the platform, rats remained on the platform for 20 seconds. Following each trial, animals were removed from the maze and placed in a holding cage for a 30 second inter-trial interval (ITI). The latency to mount the escape platform was used as a measure of task acquisition.
For this, the platform was removed and the swim path and time spent searching in the quadrant of the pool that previously contained the platform were measured over 60 s. This provides a measurement for the retention of spatial memory and indicates whether a spatial strategy was used during hidden platform training.

[5] = Body weight of aged rats on UMP diet; settings: 2.5% UMP·2Na+ diet, 0-6 weeks
Source text: Male middle aged Fischer 344 rats, 22-24 months old at the time of doing microdialysis, were obtained from National Institute on Aging (Harlan Sprague-Dawley, Indianapolis, Ind.). Rats were housed individually under standard husbandry conditions and exposed to 12 hr light/dark cycle with food and water provided ad libitum.
Rats were acclimated to the animal facility for more than 7 days before fed a control laboratory diet (Teklad Global 16% protein rodent diet, TD.00217, Harlan Telclad, Madison, Wis.), or this diet fortified with UMP·2Na^+ (2.5%, TD.03398, UMP·2Na^+; Numico Research, the Netherlands) for 6 weeks.
Rats were not fed with the research diet until at least 7 days later after their arrival. They were weighed at the time of beginning feeding (t=0), as well as 1, 2, 4, 6 weeks later. At time 0, rats were randomly assigned into two groups.

[6] = Plasma uridine levels after oral UMP in humans; format: in vivo; settings: 500, 1000 or 2000 mg UMP orally; baseline and 1, 2, 4, 8 hr
Procedure: 1-milliliter (mL) samples of heparinized plasma were spiked with 1 μg fluoro-uridine for use as an internal standard, then deproteinized by adding methanol (5 mL).
All steps were performed at 4° C. Boronate affinity columns (Affigel-601, Bio-Rad) were primed with two 5-mL ammonium acetate washes, samples were applied, and columns were washed again with ammonium acetate, after which the nucleosides were eluted with 0.1 N formic acid (7 mL). Eluates were lyophilized, then reconstituted in 100 μL water for HPLC analysis.
HPLC analysis was performed using a Beckman System Gold apparatus (Beckman Instruments) equipped with a Rainin Dynamax Microsorb C18 column (3 μm packing; 4.6×100 mm) at room temperature. The standard HPLC method is described in Lopez-Coviella et al, (J. Neurochem 65: 889-894, 1995). For modified HPLC, an isocratic elution buffer was used containing 0.004 N potassium phosphate buffer (pH 5.8) and 0.1% methanol instead of formic acid, flowing at 1 mL/min and heated to 35°.
Eight healthy subjects (5 male, 3 female, 27-67 years old) were instructed to fast overnight and given sequentially increasing doses (500, 1000, and 2000 mg) of disodium UMP (Numico, Wageningen, NL) at 7-8 AM on each of three days, separated by at least a three-day washout period. All subjects were given lunch. Blood samples were drawn over an eight-hour period into heparinized tubes. […]

[7] = test system: acetylcholine release from neurons in the corpus striatum; assay: Basal acetylcholine release in corpus striatum of rats on dietary UMP; format: in vivo
neurofilament-70 (NF-70) = assay: Western blot of NF-70 in striatum of aged rats on UMP diet; format: in vivo
Procedure: (§1) Data were represented according to UMP treatment of six to sixteen measurements each group (means±S.E.M.). One-way ANOVA with Turkey's HSD post hoc tests were used to compare the difference among the treatments the Newman-Keuls multiple range test was used for the data in FIG. 13.
(§2) Striatal tissues were placed in Eppendorf tubes containing 200 μl lysis buffer (60 mM Tris-HCl, 4% SDS, 20% glycerol, 1 mM dithiothreitol, 1 mM AEBSF, 8 μM aprotinin, 500 μM bestatin, 15 μM E64, 200 μM leupeptin, 10 μM pepstatin A). The samples were sonicated, boiled (10 min), and centrifuged (14,000 g for 1 min at room temperature) The supernatant fluid was transferred to a clean tube, and total protein content was determined using the Bicinchoninic Acid assay (Sigma, St. Louis, Mo.).
(§3) Equal amounts of protein (40 μg protein/lane) were loaded for sodium dodecyl sulfate-polyacrylamide gel electrophoresis (4-15% SDS PAGE; Bio-Rad, Hercules, Calif.). Prior to gel electrophoresis, bromphenol blue solution (0.07%) was added to each sample. Proteins were separated, transferred onto polyvinylidene difluoride (PVDF) membranes (Immobilon-P, Millipore), and blocked with 5% bovine serum albumin (Tris-buffered saline/0.15% Tween 20) for 1 h. After 3 10 min rinses in Tris-buffered saline (TBST), blots were incubated in TBST with various antibodies against the proteins of interest, including NF-70, NF-M (1: 2000, 1: 5000, respectively; Calbiochem, La Jolla, Calif.) at 4° C. overnight on an orbital shaker. […] Films were digitized using a Supervista S-12 scanner with a transparency adapter (UMAX Technologies, Freemont, Calif.). Analysis was performed using the public domain NIH Image program (NIH V.1.61).

gerbils [8] = assay: Radial arm maze food pellet learning assay in gerbils; format: in vivo; settings: gerbils, 0.1, 0.5 or 2.5% UMP chow for three weeks
Procedure: Male young adult gerbils fed control or UMP-containing chow (0, 0.1, 0.5 or 2.5%) ad lib for three weeks were tested in a radial arm maze, consisting of a central chamber with four branches primed with a small food pellet at the end of each. Before testing, animals were fasted overnight; each animal was then placed in the central chamber and allowed up to 180 seconds to find all of the pellets. A shorter time required to find the pellets is indicative of improved learning and spatial memory.

Aging rats = assay: Morris water maze in aging rats on UMP diet; format: in vivo; settings: 2.5% diet for six weeks
Source text: Aging rats (18 months, 500 g) were fed a control diet or a diet containing 2.5% UMP diets for six weeks. They were then shown a hidden platform in a six-foot diameter pool of water, placed somewhere in each of the four quadrants of the pool in turn, and were allowed 90 seconds in each trial to attempt to relocate the platform by swimming, and the swimming time “mean escape latency” recorded. The set of four trials was repeated on each of four consecutive days. The platform was in the same place each day. This test, known as the Morris water maze, is an indicator of spatial memory.

neurofilament-M (NF-M) = assay: Western blot of NF-M in striatum of aged rats on UMP diet; format: in vivo
Procedure: as §1, §2, §3

O=c1ccn([C@@H]2O[C@H](COP(=O)([O-])[O-])[C@@H](O)[C@H]2O)c(=O)[nH]1.[Na+].[Na+] [UMP, uridine-5′-monophosphate disodium]
Striatal-based (stimulus-response) memory, visible platform task (EC and IC rats [1]): little or no effect | Reference memory errors (gerbils [2]): reduced numbers | Working memory errors (gerbils [2]): reduced numbers | Basal DA levels in dialysate [3]: did not affect | Basal DOPAC levels in dialysate [3]: no effects | Basal HVA levels in dialysate [3]: no effects | Rate of acquisition of hidden platform task (EC and IC rats [4]; EC rats, vs EC-CONT, P<0.09): acquired the task at a faster rate | Rate of acquisition of hidden platform task (EC and IC rats [4]; IC rats, vs IC-CONT, P<0.05): acquired the task at a significantly faster rate | Time in correct quadrant, 60 s probe test (EC and IC rats [4]; IC rats, vs IC-CONT, p<0.01): spent significantly more time in the correct quadrant | Body weight [5]: neither UMP-diet (vs. control) nor UMP time interaction affected body weight | Plasma uridine levels [6]: increased in response to oral UMP in a dose-dependent fashion | Basal release of acetylcholine in corpus striatum [7]: increase the basal release | NF-70 level compared to control group (neurofilament-70 (NF-70); UMP diet 1 week): did not increase | NF-70 level, of control values (neurofilament-70 (NF-70); UMP diet 6 weeks, striatum, p<0.05): 182±25% | NF-70 level in striatum, of control values (second statement) (neurofilament-70 (NF-70); feeding time not given): 204±36% | Time required to find the pellets (gerbils [8]): reduced the time required for gerbils to find the pellet in a dose-dependent manner | Time required to reach the platform (mean escape latency) (Aging rats): statistically significant reduction in the time required to reach the location of the platform | NF-M level compared to control group (neurofilament-M (NF-M); UMP diet 1 week): did not increase | NF-M level, of control values (neurofilament-M (NF-M); UMP diet 6 weeks, striatum, p<0.01): 221±34% | NF-M level in striatum, of control values (second statement) (neurofilament-M (NF-M); feeding time not given): 221±34%
